Measurements reported in ChEMBL document CHEMBL1201862, “PubChem BioAssay data set” (2004).
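Dose response: 5 concentrations. Exposure: 48 h. Format: 96-well plates. Endpoint: linear interpolation; highest concentration if not reached. The concentration for 50% growth inhibition is given as GI50.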 The source made the active and inactive calls. Cut-off read from the data, not from the text of the source: active = GI50 up to about 1.1 µM and inactive = higher.

Key:
Experiment in all cases: DTP human tumour cell line panel, 48 h
[1] = tested on: SK-MEL-2
[2] = tested on: SF-295
[3] = tested on: OVCAR-5
[4] = tested on: K562
[5] = tested on: T47D
[6] = tested on: NCI-H522
[7] = tested on: UO-31
[8] = tested on: SW-620
[9] = tested on: MOLT-4
[10] = tested on: Malme-3M
[11] = tested on: HOP-62
[12] = tested on: MDA-MB-435
[13] = tested on: NCI-H226
[14] = tested on: SF-268
[15] = tested on: OVCAR-4
[16] = tested on: IGROV-1
[17] = tested on: SK-OV-3
[18] = tested on: NCI-H460
[19] = tested on: A549
[20] = tested on: Hs-578T
[21] = tested on: SF-539
[22] = tested on: KM12
[23] = tested on: SNB-19
[24] = tested on: BT-549
[25] = tested on: EKVX
[26] = tested on: SK-MEL-5
[27] = tested on: RPMI-8226
[28] = tested on: RXF 393
[29] = tested on: U-251
[30] = tested on: UACC-257
[31] = tested on: TK-10
[32] = tested on: SK-MEL-28
[33] = tested on: HCT-116
[34] = tested on: OVCAR-3
[35] = tested on: 786-0
[36] = tested on: NCI/ADR-RES
[37] = tested on: MCF7
[38] = tested on: OVCAR-8
[39] = tested on: HCT-15
[40] = tested on: CCRF-CEM
[41] = tested on: PC-3
[42] = tested on: M14
[43] = tested on: SR
[44] = tested on: HOP-92
[45] = tested on: SN12C
[46] = tested on: SNB-75
[47] = tested on: HL-60
[48] = tested on: HCC 2998
[49] = tested on: UACC-62
[50] = tested on: MDA-N
[51] = tested on: ACHN
[52] = tested on: MDA-MB-231
[53] = tested on: COLO 205
[54] = tested on: CAKI-1
[55] = tested on: HT-29
[56] = tested on: DU-145
[57] = tested on: NCI-H23
[58] = tested on: LOX IMVI
[59] = tested on: A498

Measured: GI50

CCN(CC)CCn1c(=O)c2cccnc2n2c3c(=O)n(C)c(=O)n(C)c3nc12
inactive: [1] > 100 µM | [2] > 100 µM | [3] > 100 µM | [4] > 100 µM | [5] > 100 µM | [6] > 100 µM | [7] 86.1 µM | [8] 76.9 µM | [9] 34.7 µM | [10] 65.2 µM | [11] > 100 µM | [12] > 100 µM | [13] 95.1 µM | [14] > 100 µM | [15] > 100 µM | [16] > 100 µM | [17] > 100 µM | [18] 36.6 µM | [19] 59.4 µM | [20] > 100 µM | [21] 85.1 µM | [22] > 100 µM | [23] > 100 µM | [24] > 100 µM | [25] > 100 µM | [26] 47.1 µM | [27] > 100 µM | [28] > 100 µM | [29] > 100 µM | [30] > 100 µM | [31] 23.2 µM | [32] > 100 µM | [33] 47.8 µM | [34] > 100 µM | [35] > 100 µM | [36] > 100 µM | [37] 45.1 µM | [38] > 100 µM | [40] 64.6 µM | [41] > 100 µM | [42] > 100 µM | [43] 38.5 µM | [44] > 100 µM | [45] > 100 µM | [46] > 100 µM | [47] 69 µM | [48] 72.4 µM | [49] 57 µM | [50] > 100 µM | [51] 34.8 µM | [52] > 100 µM | [53] 70.3 µM | [54] 67.9 µM | [55] > 100 µM | [56] > 100 µM | [57] > 100 µM
11.6 µM: [39]

CCOP(=O)(OCC)/C(F)=C/c1ccccc1
> 100 µM: [39]
inactive: [1] > 100 µM | [2] > 100 µM | [3] > 100 µM | [4] > 100 µM | [5] > 100 µM | [6] > 100 µM | [7] 95.9 µM | [8] > 100 µM | [9] > 100 µM | [10] > 100 µM | [11] > 100 µM | [12] > 100 µM | [58] > 100 µM | [14] > 100 µM | [15] > 100 µM | [16] > 100 µM | [59] > 100 µM | [17] > 100 µM | [18] > 100 µM | [19] > 100 µM | [20] > 100 µM | [21] > 100 µM | [22] > 100 µM | [23] > 100 µM | [24] > 100 µM | [25] > 100 µM | [26] > 100 µM | [27] > 100 µM | [28] > 100 µM | [29] > 100 µM | [30] > 100 µM | [31] > 100 µM | [32] > 100 µM | [33] > 100 µM | [34] > 100 µM | [35] > 100 µM | [36] > 100 µM | [37] > 100 µM | [38] > 100 µM | [40] > 100 µM | [41] > 100 µM | [42] > 100 µM | [43] > 100 µM | [44] > 100 µM | [45] > 100 µM | [46] > 100 µM | [47] > 100 µM | [48] > 100 µM | [49] > 100 µM | [50] > 100 µM | [51] > 100 µM | [52] > 100 µM | [53] > 100 µM | [54] > 100 µM | [55] > 100 µM | [56] > 100 µM | [57] > 100 µM

CC(=O)NC1C(OCc2ccccc2)OC(CO)C(O)C1OCC(=O)NC(C)C(=O)NC(CCC(=O)NCCCCCC(=O)Nc1ccc2c(c1)CN1C(=O)c3ccccc3C1=N2)C(N)=O (centres undefined)
inactive: [1] > 100 µM | [2] 75.7 µM | [3] > 100 µM | [4] 45 µM | [5] > 100 µM | [7] > 100 µM | [8] 43.5 µM | [9] 42.1 µM | [10] 78.3 µM | [11] 41 µM | [12] > 100 µM | [58] 53.1 µM | [14] 63.8 µM | [15] > 100 µM | [16] > 100 µM | [59] > 100 µM | [17] > 100 µM | [18] 43.1 µM | [19] 72.8 µM | [20] > 100 µM | [21] > 100 µM | [22] 34.5 µM | [23] 63.1 µM | [24] > 100 µM | [25] > 100 µM | [26] 75 µM | [27] 38 µM | [28] > 100 µM | [29] 48.3 µM | [30] > 100 µM | [31] 30.3 µM | [32] > 100 µM | [33] 39.6 µM | [34] > 100 µM | [35] 82.8 µM | [36] > 100 µM | [37] 35.6 µM | [38] 49.5 µM | [40] 32.7 µM | [41] 58.6 µM | [42] > 100 µM | [43] 17.4 µM | [44] 25.3 µM | [45] 69.8 µM | [46] 49.8 µM | [47] > 100 µM | [48] 61.4 µM | [49] 57.3 µM | [50] > 100 µM | [51] 62.8 µM | [52] > 100 µM | [53] > 100 µM | [54] > 100 µM | [55] > 100 µM | [56] > 100 µM | [57] 67.5 µM
> 100 µM: [39]

O=C1/C(=C2/C(=O)N(c3ccccc3)c3ccccc32)Nc2ccccc21
active: [5] 0.571 µM
50 µM: [39]
inactive: [1] 35.5 µM | [2] 48.4 µM | [3] 51.1 µM | [4] 42.2 µM | [6] 66.5 µM | [7] 43.7 µM | [8] 63.1 µM | [9] 35.2 µM | [10] 73.1 µM | [11] 31.8 µM | [12] 66.8 µM | [58] 78.3 µM | [13] 27.9 µM | [14] 36.4 µM | [15] 25.5 µM | [16] 19.8 µM | [59] 24.5 µM | [17] 43.6 µM | [18] 46.2 µM | [19] 37.2 µM | [20] 58.2 µM | [22] > 100 µM | [23] 29.6 µM | [24] 45 µM | [25] 24.2 µM | [26] 22.3 µM | [27] > 100 µM | [28] 15 µM | [29] 31.8 µM | [30] 37.4 µM | [31] 27 µM | [32] > 100 µM | [33] 36.6 µM | [34] 52 µM | [35] 15 µM | [36] > 100 µM | [37] 11.9 µM | [38] 47.8 µM | [40] 92.3 µM | [41] 26.7 µM | [42] 38.1 µM | [43] 61.2 µM | [44] 25.9 µM | [45] 59.8 µM | [46] 14.9 µM | [48] 32.3 µM | [49] > 100 µM | [50] > 100 µM | [51] 21.2 µM | [52] 18.9 µM | [53] 24.7 µM | [54] 45.5 µM | [55] 59 µM | [56] 27 µM | [57] 63.5 µM
